Laboratory results: the supplement of paper PMC4862054

How the values were obtained:
Settings in all cases: incubation time: 72 h
BT-549 [1] = experiment: normalised response (% of control), CellTiter-Glo; higher = more viable cells (100 = DMSO, 0 = benzethonium chloride kill control)
Method in brief: (§1)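 Two readouts were taken after 72 h: CellTox Green fluorescence (485/520 nm) first, then CellTiter-Glo luminescence after 10 min at room temperature. Breast cancer cell lines had been seeded as 20 µl suspension into 384-well plates holding compound at 5 concentrations in 10-fold steps across a compound-specific 10,000-fold range. Each value is a normalised signal at a single concentration, with plates scaled to 0.1 % DMSO (100) and a positive kill control (0).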

MFM-223 [2] = experiment: as above
Method in brief: as §1

MDA-MB-468 [3] = experiment: as above
Method in brief: as §1

HCC1599 [4] = experiment: as above
Method in brief: as §1

SK-BR-3 = experiment: as above
Method in brief: as §1

CAL-51 [5] = experiment: as above
Method in brief: as §1

MCF-10A [6] = experiment: as above
Method in brief: as §1

DU-4475 [7] = experiment: as above
Method in brief: as §1

CAL-85-1 [8] = experiment: as above
Method in brief: as §1

HCC1937 [9] = experiment: as above
Method in brief: as §1

BT-474 [10] = experiment: as above
Method in brief: as §1

HDQ-P1 [11] = experiment: as above
Method in brief: as §1

MDA-MB-436 [12] = experiment: as above
Method in brief: as §1

CAL-148 [13] = experiment: as above
Method in brief: as §1

Hs578T [14] = experiment: as above
Method in brief: as §1

CAL-120 [15] = experiment: as above
Method in brief: as §1

MDA-MB-231 [16] = experiment: as above
Method in brief: as §1

HCC1143 [17] = experiment: as above
Method in brief: as §1

MDA-MB-453 [18] = experiment: as above
Method in brief: as §1

BT-549 [19] = experiment: normalised response (% of control), CellTox Green; higher = less cell death (100 = DMSO, 0 = benzethonium chloride kill control)
Method in brief: as §1

MFM-223 [20] = experiment: as above
Method in brief: as §1

MDA-MB-468 [21] = experiment: as above
Method in brief: as §1

HCC1599 [22] = experiment: as above
Method in brief: as §1

CAL-51 [23] = experiment: as above
Method in brief: as §1

DU-4475 [24] = experiment: as above
Method in brief: as §1

CAL-85-1 [25] = experiment: as above
Method in brief: as §1

HCC1937 [26] = experiment: as above
Method in brief: as §1

BT-474 [27] = experiment: as above
Method in brief: as §1

HDQ-P1 [28] = experiment: as above
Method in brief: as §1

MDA-MB-436 [29] = experiment: as above
Method in brief: as §1

CAL-148 [30] = experiment: as above
Method in brief: as §1

Hs578T [31] = experiment: as above
Method in brief: as §1

CAL-120 [32] = experiment: as above
Method in brief: as §1

MDA-MB-231 [33] = experiment: as above
Method in brief: as §1

HCC1143 [34] = experiment: as above
Method in brief: as §1

MDA-MB-453 [35] = experiment: as above
Method in brief: as §1

MCF-10A [36] = experiment: as above
Method in brief: as §1

Structure (SMILES)	normalised response (BT-549 [1]) [%]	normalised response (MFM-223 [2]) [%]	normalised response (MDA-MB-468 [3]) [%]	normalised response (HCC1599 [4]) [%]	normalised response (SK-BR-3) [%]	normalised response (CAL-51 [5]) [%]	normalised response (MCF-10A [6]) [%]	normalised response (DU-4475 [7]) [%]	normalised response (CAL-85-1 [8]) [%]	normalised response (HCC1937 [9]) [%]	normalised response (BT-474 [10]) [%]	normalised response (HDQ-P1 [11]) [%]	normalised response (MDA-MB-436 [12]) [%]	normalised response (CAL-148 [13]) [%]	normalised response (Hs578T [14]) [%]	normalised response (CAL-120 [15]) [%]	normalised response (MDA-MB-231 [16]) [%]	normalised response (HCC1143 [17]) [%]	normalised response (MDA-MB-453 [18]) [%]	normalised response (BT-549 [19]) [%]	normalised response (MFM-223 [20]) [%]	normalised response (MDA-MB-468 [21]) [%]	normalised response (HCC1599 [22]) [%]	normalised response (CAL-51 [23]) [%]	normalised response (DU-4475 [24]) [%]	normalised response (CAL-85-1 [25]) [%]	normalised response (HCC1937 [26]) [%]	normalised response (BT-474 [27]) [%]	normalised response (HDQ-P1 [28]) [%]	normalised response (MDA-MB-436 [29]) [%]	normalised response (CAL-148 [30]) [%]	normalised response (Hs578T [31]) [%]	normalised response (CAL-120 [32]) [%]	normalised response (MDA-MB-231 [33]) [%]	normalised response (HCC1143 [34]) [%]	normalised response (MDA-MB-453 [35]) [%]	normalised response (MCF-10A [36]) [%]
Nc1ncnc2c1c(COc1cccc(Cl)c1)nn2C1CCOCC1 (1000 nM)	88.6	104	96.6	113	107	105	104	102	93.4	103	104	107	106	102	97.1	111	104	104	103	96.5	103	99.3	74.4	118	108	108	124	98.3	114	107	105	104	103	115	119	110	–
COc1ccc(-c2ccc3c(N4CCOC[C@@H]4C)nc(N4CCOC[C@@H]4C)nc3n2)cc1CO [AZD8055] (1000 nM)	21.5	27.6	23.6	67.2	20.3	20.3	27.8	23.2	25.3	45.7	46.6	32.3	45.8	13.9	29.4	18	36.5	24.2	31.3	116	93.6	118	94.2	80.1	83.3	87.8	56.8	86.1	103	92.4	39.6	102	96	87.4	74.1	104	91.7
C[C@]12CC[C@H](O)CC1=CC[C@@H]1[C@@H]2CC[C@]2(C)C(c3cccnc3)=CC[C@@H]12 [Abiraterone] (500 nM)	99.1	101	98	107	103	65.6	112	105	104	98.7	90.7	99.2	96	105	106	97.1	105	98.8	99.3	135	104	92	110	101	101	96	123	103	108	88.8	94.8	114	99.1	127	104	104	102
CC(C)(C#N)c1cc(Cn2cncn2)cc(C(C)(C)C#N)c1 [Anastrozole] (1000 nM)	99.2	105	106	123	108	122	105	98.2	103	94.5	104	96.5	100	93.3	103	96.7	106	101	96.9	106	101	85.1	102	113	100	110	106	99.8	111	103	93.9	62.7	101	104	61.9	96.5	105
